Starred links: 1 amine or outer side, 2 acyl side, 3 side chain; linkers in the order of their positions; H or OH if unused. Non-standard residues stand in square brackets, D forms with d. Residues, ends and D or L forms follow the SMILES beside them. *: point of attachment. C20 diacid = O=C(O)CCCCCCCCCCCCCCCCCCC(=O)*; γGlu = O=C(O)[C@H](CCC(=O)[*:2])N[*:1]; Hyp = O=C(O)[C@@H]1C[C@@H](O)CN1
Key:
human amylin receptors = target: T1, human amylin receptors (Homo sapiens, UniProt O60896+P30988); experiment: Luciferase assay in stably transfected amylin receptor/CRE-luc CHO cell line; type: cell-based; settings: for Relative activity: EC50 ratio of Cagrilintide to the compound, Cagrilintide 100%; for EC50: amylin receptor/CRE-luc CHO cells, 24 hours incubation, luminescence
T1 construct: host or cells: CHO-K1/Ga15/AMY3 cells, further stably transfected with a CRE-luciferase plasmid
T1 sequence (P30988 25-474): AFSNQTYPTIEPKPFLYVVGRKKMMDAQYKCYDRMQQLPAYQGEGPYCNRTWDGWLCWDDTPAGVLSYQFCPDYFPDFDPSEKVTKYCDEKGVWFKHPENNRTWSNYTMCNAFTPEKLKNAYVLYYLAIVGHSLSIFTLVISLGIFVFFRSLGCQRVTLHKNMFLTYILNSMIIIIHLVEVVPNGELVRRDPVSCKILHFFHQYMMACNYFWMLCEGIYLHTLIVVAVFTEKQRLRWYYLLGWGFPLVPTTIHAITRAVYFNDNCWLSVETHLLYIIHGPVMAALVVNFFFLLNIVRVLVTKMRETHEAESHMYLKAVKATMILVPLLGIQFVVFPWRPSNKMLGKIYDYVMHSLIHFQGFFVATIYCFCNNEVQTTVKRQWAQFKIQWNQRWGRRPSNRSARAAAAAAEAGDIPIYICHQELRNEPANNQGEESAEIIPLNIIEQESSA
T1 sequence (O60896 24-148 partner): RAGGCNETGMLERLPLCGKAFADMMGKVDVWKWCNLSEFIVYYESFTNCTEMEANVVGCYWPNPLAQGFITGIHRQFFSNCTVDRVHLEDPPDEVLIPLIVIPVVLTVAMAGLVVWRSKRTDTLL

[1] = Heat accelerated stability assay, 40° C., detection on 10 d and 20 d; type: physicochemical; settings: 1 mg/mL, pH about 7.4, 40° C.
In short: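 Polypeptide derivatives at 1 mg/mL with sodium dihydrogen phosphate (1.42 mg/mL) in water, pH ~7.4, sterile-filtered and held at 40° C. Sampled at 10 d and 20 d, centrifuged, and supernatant analysed by HPLC (214 nm, 25° C., phosphate pH 5.8/ACN gradient) for concentration and purity.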

[2] = Efficacy assay in SD rats, dose-dependent study (Example 5); type: in vivo
Description: SPF male SD rats (7-8 weeks, 220-230 g) were employed in this study after health inspection and quarantine. The experimental animals were exposed to a room temperature of 20° C.-23° C. and a relative humidity of 40%-50%, and were provided with Co60 mouse reproduction feed 1035 and purified water supplied with water feeding bottles for free intake throughout the health inspection and quarantine and the study. […] Using a single dose administered via subcutaneous injection, the study lasted for a total of 6 days with the day of administration designated as Day 1/Time 0 (TO), wherein on Day 0, the initial body weight of the animals were recorded and the initial feed was added, and on Day 1-Day 5, the body weight of the studied animals as well as the remaining food were recorded daily for calculating the percentage of weight change and the amount of food intake, any anomalies during which were required to be recorded and reported. During the study, the rats were in good condition and no anomaly was observed. Weight change=(BWTn−BWT0)/BWT0* 100%, wherein BW represented the value of body weight, and T0 and Tn represented the time points of dosing and n hours post dose respectively. Dots in the figures were represented utilizing mean±standard error of the mean (SEM). Accumulated food intake was the total amount of food intake for each of the animals prior to a certain time point post dose.

[3] = Efficacy assay in DIO SD rats, dose-dependent study (Example 6); type: in vivo
Description: SPF male DIO SD rats (36-37 weeks, […], fed with high-fat diet for 34 weeks from 3-week age on) were employed in this study. The experimental animals were exposed to a room temperature of 20° C.-23° C. and a relative humidity of 40%-50%, and were provided with high-fat diet D12492 and purified water supplied with water feeding bottles for free intake throughout the construction of the DIO animal model and the study. Based on their mean body weight, the animals were assigned to 6 groups designated as B1-B6 (n=5). Administration via subcutaneous injection was conducted once a day for 10 continuous days, wherein the first day of administration was designated as Day 1 (D1), and on Day 0, the initial body weight of the animals were recorded and the initial feed was added, and on Day 1-Day 11, the body weight of the studied animals as well as the remaining food were recorded daily for calculating the percentage of weight change and the amount of food intake, any anomalies during which were required to be recorded and reported. During the study, the rats were in good condition and no anomaly was observed. Weight change=(BWDn−BWD1)/BWD1*100%, wherein BW represented the value of body weight, and D1 and Dn represented the first and Nth days of administration respectively. Dots in the figures were represented utilizing mean±standard error of the mean (SEM). Accumulated food intake was the total amount of food intake for animals of each group prior to a certain time point post dose.

in vivo = experiment: in vivo; design: species or system SD rats; settings: male, SD, rat, sc, 1 mg/kg
Description: The animals received a subcutaneous injection of corresponding compounds for testing (1 mg/kg and 5 ml/kg), and the day of administration was designated as D1. The whole blood of the animals was collected pre dose (-10 min) on D1 and post dose at D1-2h, D1-4h, D1-6h, D2-24h, D3-48h, D4-72h, D5-96h, and D6-120 h and was processed into plasma (using EDTA for anticoagulation). Liquid chromatography-tandem mass spectrometry (LC-MS/MS) was used to detect the concentration of drug molecules in the plasma, and GraphPad Prism 10 was utilized to plot a concentration-time curve for the drugs whose pharmacokinetic parameters including Cmax, Tmax, T1/2, AUC, and MRT were then calculated with PKSolver.

[4] = Heat accelerated stability assay, 40° C., detection on 7 d and 28 d; type: physicochemical
In short: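 Reversed-phase HPLC (214 nm, 0.05% TFA water/acetonitrile gradient, column 25° C.) measured polypeptide concentration and purity in centrifuged supernatants on days 7 and 28. Samples: 1 mg/mL derivative with 1.42 mg/mL sodium dihydrogen phosphate, pH about 7.4, filtered and held at 40° C.; physical changes also recorded.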

[5] = Animal study in SD rats (Example 4), weight change and food consumption; type: in vivo; settings: 30 nmol/kg subcutaneous (FIGS. 2A, 2B)
Description: SPF male SD rats (7-8 weeks, 200-250 g) were employed in this study after health inspection and quarantine. The experimental animals were exposed to a room temperature of 20° C.-23° C. and a relative humidity of 40%-50%, and were provided with Co60 mouse reproduction feed 1035 and purified water supplied with water feeding bottles for free intake throughout the health inspection and quarantine and the study. Based on their mean body weight, 5 rats were assigned to each testing group for the derivatives. The rats were subcutaneously administered the derivatives at a dose of 30 nmol/kg or a vehicle (PBS pH7.4), and the dosing timepoint was recorded for each group. After dosing, the rats were put back into cages where they lived and could have access to food and water. Food consumption and weight change of the rats were recorded online or manually every 24 hours.

[6] = background statement; cited from earlier work
[7] = single subcutaneous dose 10, 30, 100 nmol/kg (FIGS. 3A-3D)
[8] = subcutaneous once a day for 10 days, 3 and 10 nmol/kg (FIGS. 4A, 4B)

CC[C@H](C)[C@H](NC(=O)[C@@H]1CCCN1C(=O)[C@H](CCCCN)NC(=O)[C@H](CC(C)C)NC(=O)[C@H](CCC(N)=O)NC(=O)[C@H](CCC(N)=O)NC(=O)[C@H](CO)NC(=O)[C@H](CO)NC(=O)[C@H](Cc1c[nH]cn1)NC(=O)[C@H](CCCNC(=N)N)NC(=O)[C@H](CC(C)C)NC(=O)[C@H](Cc1ccccc1)NC(=O)[C@H](CC(=O)O)NC(=O)[C@H](C)NC(=O)[C@H](CC(C)C)NC(=O)[C@H](CCCNC(=N)N)NC(=O)[C@H](CCC(N)=O)NC(=O)[C@@H](NC(=O)[C@H](C)NC(=O)[C@H](C)NC(=O)[C@@H](NC(=O)[C@H](CO)NC(=O)[C@H](CC(C)C)NC(=O)[C@H](CCC(N)=O)NC(=O)[C@H](CO)NC(=O)[C@H](C)NC(=O)CC[C@H](NC(=O)CCCCCCCCCCCCCCCCCCC(=O)O)C(=O)O)[C@@H](C)O)[C@@H](C)O)C(=O)N[C@@H](CC(C)C)C(=O)N1CCC[C@H]1C(=O)N1CCC[C@H]1C(=O)N[C@H](C(=O)N[C@@H](CC(N)=O)C(=O)N[C@H](C(=O)NCC(=O)N[C@@H](CO)C(=O)N[C@@H](CC(N)=O)C(=O)N[C@H](C(=O)N1C[C@H](O)C[C@H]1C(N)=O)[C@@H](C)O)C(C)C)[C@@H](C)O [M41] ({C20 diacid-γGlu}-ASQLSTAATQRLADFLRHSSQQLKPILPPTNVGSNT[Hyp]-NH2)
Relative activity (human amylin receptors): 113%
EC50 (human amylin receptors): 0.08 nM
Reduction in purity, 10 d ([1]; 10 d): 2.93%
Reduction in purity, 20 d ([1]; 20 d): 4.26%
Body weight and food intake reduction compared with Cagrilintide ([2]; equivalent dosage): performed better than Cagrilintide at the equivalent dosage
Effect on body weight [2, 7]: dose-dependently reduced
Effect on food intake [2, 7]: dose-dependently reduced
Body weight and food intake reduction compared with Cagrilintide ([3]; equivalent dosage): performed better than Cagrilintide at the equivalent dosage
Effect on body weight [3, 8]: dose-dependently reduced
Effect on food intake [3, 8]: dose-dependently reduced
AUC(0-inf) (in vivo): 257 µg·h/mL
AUC(0-t) (in vivo): 250 µg·h/mL
Cmax (in vivo): 4780 ng/mL
MRT inf (in vivo): 45.9 h
Tmax (in vivo): 24 h
half-life (in vivo): 23.7 h

CC[C@H](C)[C@H](NC(=O)[C@H](CC(=O)O)NC(=O)[C@H](CCCNC(=N)N)NC(=O)[C@H](CC(=O)O)NC(=O)[C@H](CCCNC(=N)N)NC(=O)[C@H](CC(=O)O)NC(=O)[C@@H](NC(=O)[C@H](Cc1ccccc1)NC(=O)[C@H](Cc1c[nH]cn1)NC(=O)[C@H](CCCNC(=N)N)NC(=O)[C@H](CC(C)C)NC(=O)[C@H](Cc1ccccc1)NC(=O)[C@H](CC(=O)O)NC(=O)[C@H](C)NC(=O)[C@H](CC(C)C)NC(=O)[C@H](CCCNC(=N)N)NC(=O)[C@H](CCC(N)=O)NC(=O)[C@@H](NC(=O)[C@H](C)NC(=O)[C@H](C)NC(=O)[C@@H](NC(=O)[C@H](CO)NC(=O)[C@H](CC(C)C)NC(=O)[C@H](CCC(N)=O)NC(=O)[C@H](CO)NC(=O)[C@H](C)NC(=O)CC[C@H](NC(=O)CCCCCCCCCCCCCCCCCCC(=O)O)C(=O)O)[C@@H](C)O)[C@@H](C)O)[C@@H](C)O)C(=O)N[C@@H](CC(C)C)C(=O)N1CCC[C@H]1C(=O)N1CCC[C@H]1C(=O)N[C@H](C(=O)N[C@@H](CC(N)=O)C(=O)N[C@H](C(=O)NCC(=O)N[C@@H](CO)C(=O)N[C@@H](CC(N)=O)C(=O)N[C@H](C(=O)N1CCC[C@H]1C(N)=O)[C@@H](C)O)C(C)C)[C@@H](C)O [M6] ({C20 diacid-γGlu}-ASQLSTAATQRLADFLRHFTDRDRDILPPTNVGSNTP-NH2)
Relative activity (human amylin receptors): 62%
EC50 (human amylin receptors): 0.042 nM
Purity from the reversed phase chromatography-214 nm, 0 d ([4]; 1 mg/mL, pH about 7.4, 40° C., 0 d): 91.52
Purity from the reversed phase chromatography-214 nm, 7 d ([4]; 1 mg/mL, pH about 7.4, 40° C., 7 d): 90.98
Purity from the reversed phase chromatography-214 nm, 28 d ([4]; 1 mg/mL, pH about 7.4, 40° C., 28 d): 92.33
Change of spectra of reversed phase chromatography after heat acceleration ([4]; after 7 days or even 1 month, 40° C. (FIG. 1)): almost no change
Change (7 d − 0 d) ([4]; purity on 7 d − purity on 0 d, 40° C., pH about 7.4): −0.54
Change (28 d − 0 d) ([4]; purity on 28 d − purity on 0 d, 40° C., pH about 7.4): 0.81
Activity on weight loss and food intake compared with Cagrilintide [5]: the most active one with an activity notably higher than Cagrilintide

CC[C@H](C)[C@H](NC(=O)[C@@H]1CCCN1C(=O)CNC(=O)[C@H](Cc1ccccc1)NC(=O)[C@H](CC(N)=O)NC(=O)[C@H](CC(N)=O)NC(=O)[C@H](CO)NC(=O)[C@H](CO)NC(=O)[C@H](Cc1c[nH]cn1)NC(=O)[C@@H](NC(=O)[C@H](CC(C)C)NC(=O)[C@H](Cc1ccccc1)NC(=O)[C@H](CC(N)=O)NC(=O)[C@H](C)NC(=O)[C@H](CC(C)C)NC(=O)[C@H](CCCNC(=N)N)NC(=O)[C@H](CCC(N)=O)NC(=O)[C@@H](NC(=O)[C@H](C)NC(=O)[C@@H]1CSSC[C@H](NC(=O)[C@@H](N)CCCCN)C(=O)N[C@@H](CC(N)=O)C(=O)N[C@@H]([C@@H](C)O)C(=O)N[C@@H](C)C(=O)N[C@@H]([C@@H](C)O)C(=O)N1)[C@@H](C)O)C(C)C)C(=O)N[C@@H](CC(C)C)C(=O)N1CCC[C@H]1C(=O)N1CCC[C@H]1C(=O)N[C@H](C(=O)N[C@@H](CC(N)=O)C(=O)N[C@H](C(=O)NCC(=O)N[C@@H](CO)C(=O)N[C@@H](CC(N)=O)C(=O)N[C@H](C(=O)N[C@@H](Cc1ccc(O)cc1)C(N)=O)[C@@H](C)O)C(C)C)[C@@H](C)O [Pramlintide]
fibrillation [6]: fibrillates at pH 7

Source: patent US20260265329A1, “POLYPEPTIDE AND DERIVATIVE THEREOF, COMPOSITION, AND USE THEREOF” (HANGZHOU SCIWIND BIOSCIENCES CO., LTD., priority 2023, published 2026)
